Source: PMC4490784, “Compensatory induction of MYC expression by sustained CDK9 inhibition via a BRD4-dependent mechanism” (eLife, 2015)

Key:
Test in all cases: KINOMEscan binding assay
IRAK4 = IRAK4 (Homo sapiens, UniProt Q9NWZ3); conditions: 1 µM i-CDK9
Procedure, shortened: (§1)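 Over 400 kinases were screened. i-CDK9 was applied at 1 and 10 µM. Occupancy was read by competition with an active site-directed ligand.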

MAP4K2 = molecular target: T1, MAP4K2 (Homo sapiens, UniProt Q12851); conditions: read-out: % Retention on Solid Support
T1 construct: purchased DiscoveRx KINOMEscan
T1 sequence (Q12851 whole entry): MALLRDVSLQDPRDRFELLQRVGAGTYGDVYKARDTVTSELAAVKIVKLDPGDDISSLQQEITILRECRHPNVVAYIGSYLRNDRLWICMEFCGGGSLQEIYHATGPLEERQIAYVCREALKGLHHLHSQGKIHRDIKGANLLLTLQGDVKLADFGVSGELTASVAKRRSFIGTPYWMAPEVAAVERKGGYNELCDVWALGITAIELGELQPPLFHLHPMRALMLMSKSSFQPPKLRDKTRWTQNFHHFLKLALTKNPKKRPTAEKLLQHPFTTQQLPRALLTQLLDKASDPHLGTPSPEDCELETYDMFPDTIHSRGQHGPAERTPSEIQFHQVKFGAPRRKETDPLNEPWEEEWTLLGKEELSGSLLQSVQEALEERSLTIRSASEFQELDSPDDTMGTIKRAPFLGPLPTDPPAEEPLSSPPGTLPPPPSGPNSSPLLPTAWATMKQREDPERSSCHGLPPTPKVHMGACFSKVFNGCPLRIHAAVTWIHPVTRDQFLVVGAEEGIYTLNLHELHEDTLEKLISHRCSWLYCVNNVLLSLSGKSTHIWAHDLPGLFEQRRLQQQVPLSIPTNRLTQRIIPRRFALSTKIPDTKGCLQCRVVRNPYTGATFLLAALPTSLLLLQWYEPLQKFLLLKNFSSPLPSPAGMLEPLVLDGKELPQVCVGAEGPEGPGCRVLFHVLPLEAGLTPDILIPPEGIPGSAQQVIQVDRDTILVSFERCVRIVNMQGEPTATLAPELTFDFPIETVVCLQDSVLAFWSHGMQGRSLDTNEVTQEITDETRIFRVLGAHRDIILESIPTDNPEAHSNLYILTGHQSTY
Procedure, shortened: as §1

PIP5K2C = molecular target: T2, PIP5K2C (Homo sapiens, UniProt Q8TBX8); conditions: 1 µM i-CDK9; read-out: % Retention on Solid Support
T2 construct: purchased DiscoveRx KINOMEscan
Procedure, shortened: as §1

ERBB4 = molecular target: T3, ERBB4 (Homo sapiens, UniProt Q15303); conditions: read-out: % Retention on Solid Support
T3 construct: purchased DiscoveRx KINOMEscan
T3 sequence (Q15303 26-1308): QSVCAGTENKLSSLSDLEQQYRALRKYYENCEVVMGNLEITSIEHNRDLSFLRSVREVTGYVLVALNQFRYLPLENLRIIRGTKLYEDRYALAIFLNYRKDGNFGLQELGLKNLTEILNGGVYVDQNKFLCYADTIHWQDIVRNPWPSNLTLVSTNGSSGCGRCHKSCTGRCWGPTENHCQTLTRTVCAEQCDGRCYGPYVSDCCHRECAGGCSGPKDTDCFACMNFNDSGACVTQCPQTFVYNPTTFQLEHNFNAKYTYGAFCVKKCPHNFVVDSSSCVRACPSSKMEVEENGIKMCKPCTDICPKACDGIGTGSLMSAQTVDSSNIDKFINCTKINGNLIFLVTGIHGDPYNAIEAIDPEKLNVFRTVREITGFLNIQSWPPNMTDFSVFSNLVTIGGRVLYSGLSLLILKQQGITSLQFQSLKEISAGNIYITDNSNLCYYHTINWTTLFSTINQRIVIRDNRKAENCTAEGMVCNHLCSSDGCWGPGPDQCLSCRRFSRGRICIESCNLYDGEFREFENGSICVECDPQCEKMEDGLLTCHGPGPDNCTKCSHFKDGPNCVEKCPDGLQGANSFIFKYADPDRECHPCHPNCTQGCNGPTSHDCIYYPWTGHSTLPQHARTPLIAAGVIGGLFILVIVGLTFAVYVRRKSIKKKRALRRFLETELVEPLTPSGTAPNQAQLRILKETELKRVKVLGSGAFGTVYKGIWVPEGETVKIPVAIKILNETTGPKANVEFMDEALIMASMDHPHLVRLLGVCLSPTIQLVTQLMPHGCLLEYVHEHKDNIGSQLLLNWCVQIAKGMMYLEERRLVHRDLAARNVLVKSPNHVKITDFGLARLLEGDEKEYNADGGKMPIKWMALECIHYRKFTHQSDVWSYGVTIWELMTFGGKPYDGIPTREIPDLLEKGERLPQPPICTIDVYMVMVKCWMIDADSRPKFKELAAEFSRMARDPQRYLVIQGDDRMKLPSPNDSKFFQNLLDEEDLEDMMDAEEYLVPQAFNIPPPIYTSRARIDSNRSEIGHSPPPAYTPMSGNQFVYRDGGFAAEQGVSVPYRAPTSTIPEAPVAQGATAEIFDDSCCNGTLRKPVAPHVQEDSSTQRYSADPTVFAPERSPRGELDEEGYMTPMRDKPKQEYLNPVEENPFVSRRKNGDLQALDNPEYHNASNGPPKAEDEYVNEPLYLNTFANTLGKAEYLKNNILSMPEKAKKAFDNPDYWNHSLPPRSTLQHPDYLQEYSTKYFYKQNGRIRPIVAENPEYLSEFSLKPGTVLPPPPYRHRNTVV
Procedure, shortened: as §1

FLT3(ITD) = tested on: FLT3(ITD)
Procedure, shortened: as §1

SgK110 = molecular target: T4, SgK110 (Homo sapiens, UniProt P0C264); conditions: read-out: % Retention on Solid Support
T4 construct: purchased DiscoveRx KINOMEscan
T4 sequence (P0C264 whole entry): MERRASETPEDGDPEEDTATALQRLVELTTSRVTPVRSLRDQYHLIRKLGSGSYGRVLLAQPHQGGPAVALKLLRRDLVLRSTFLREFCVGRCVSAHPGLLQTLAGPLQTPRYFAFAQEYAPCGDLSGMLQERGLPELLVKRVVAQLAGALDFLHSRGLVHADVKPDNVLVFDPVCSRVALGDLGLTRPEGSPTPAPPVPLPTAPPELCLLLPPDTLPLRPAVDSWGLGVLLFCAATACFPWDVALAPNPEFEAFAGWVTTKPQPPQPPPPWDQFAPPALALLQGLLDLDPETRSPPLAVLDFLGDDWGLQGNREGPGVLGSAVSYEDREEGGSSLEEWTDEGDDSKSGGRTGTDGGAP
Procedure, shortened: as §1

ABL1-nonphosphorylated = molecular target: T5, ABL1-nonphosphorylated (Homo sapiens, UniProt P00519); conditions: read-out: % Retention on Solid Support
T5 construct: purchased DiscoveRx KINOMEscan
Procedure, shortened: as §1

[1] = molecular target: T6, ABL1(Q252H)-phosphorylated (Homo sapiens, UniProt P00519, Q252H); conditions: 1 µM i-CDK9; read-out: % Retention on Solid Support
T6 construct: purchased DiscoveRx KINOMEscan
Procedure, shortened: as §1

PDGFRB = molecular target: T7, PDGFRB (Homo sapiens, UniProt P09619); conditions: read-out: % Retention on Solid Support
T7 construct: purchased DiscoveRx KINOMEscan
T7 sequence (P09619 33-1106): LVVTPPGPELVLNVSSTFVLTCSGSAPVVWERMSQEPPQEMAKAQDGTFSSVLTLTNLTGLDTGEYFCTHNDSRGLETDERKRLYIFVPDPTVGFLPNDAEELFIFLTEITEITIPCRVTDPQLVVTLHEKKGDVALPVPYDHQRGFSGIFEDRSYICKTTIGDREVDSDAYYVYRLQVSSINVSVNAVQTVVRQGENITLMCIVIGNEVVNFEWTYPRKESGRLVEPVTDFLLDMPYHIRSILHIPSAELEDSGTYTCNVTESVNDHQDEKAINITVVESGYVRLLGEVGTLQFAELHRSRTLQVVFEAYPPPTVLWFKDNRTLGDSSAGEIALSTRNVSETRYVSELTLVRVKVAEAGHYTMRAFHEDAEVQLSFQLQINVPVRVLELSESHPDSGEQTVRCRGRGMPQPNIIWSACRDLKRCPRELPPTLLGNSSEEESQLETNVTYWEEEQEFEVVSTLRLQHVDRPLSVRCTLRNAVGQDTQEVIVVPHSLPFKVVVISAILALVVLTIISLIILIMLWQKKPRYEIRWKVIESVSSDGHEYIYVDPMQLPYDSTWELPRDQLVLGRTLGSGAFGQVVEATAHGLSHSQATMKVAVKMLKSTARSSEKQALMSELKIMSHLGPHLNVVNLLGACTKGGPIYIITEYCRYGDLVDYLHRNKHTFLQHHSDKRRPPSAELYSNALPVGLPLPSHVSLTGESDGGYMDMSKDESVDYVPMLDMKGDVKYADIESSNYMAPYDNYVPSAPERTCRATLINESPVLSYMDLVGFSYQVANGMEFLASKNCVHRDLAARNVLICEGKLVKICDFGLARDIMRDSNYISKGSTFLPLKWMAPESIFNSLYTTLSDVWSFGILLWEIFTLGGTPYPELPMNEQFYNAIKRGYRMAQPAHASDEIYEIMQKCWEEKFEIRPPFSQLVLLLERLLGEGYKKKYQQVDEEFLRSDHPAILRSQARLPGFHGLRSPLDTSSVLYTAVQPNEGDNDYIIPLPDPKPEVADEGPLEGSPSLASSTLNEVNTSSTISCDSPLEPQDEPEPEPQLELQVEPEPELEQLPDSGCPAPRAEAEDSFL
Procedure, shortened: as §1

MYLK2 = molecular target: T8, MYLK2 (Homo sapiens, UniProt Q9H1R3); conditions: read-out: % Retention on Solid Support
T8 construct: purchased DiscoveRx KINOMEscan
T8 sequence (Q9H1R3 whole entry): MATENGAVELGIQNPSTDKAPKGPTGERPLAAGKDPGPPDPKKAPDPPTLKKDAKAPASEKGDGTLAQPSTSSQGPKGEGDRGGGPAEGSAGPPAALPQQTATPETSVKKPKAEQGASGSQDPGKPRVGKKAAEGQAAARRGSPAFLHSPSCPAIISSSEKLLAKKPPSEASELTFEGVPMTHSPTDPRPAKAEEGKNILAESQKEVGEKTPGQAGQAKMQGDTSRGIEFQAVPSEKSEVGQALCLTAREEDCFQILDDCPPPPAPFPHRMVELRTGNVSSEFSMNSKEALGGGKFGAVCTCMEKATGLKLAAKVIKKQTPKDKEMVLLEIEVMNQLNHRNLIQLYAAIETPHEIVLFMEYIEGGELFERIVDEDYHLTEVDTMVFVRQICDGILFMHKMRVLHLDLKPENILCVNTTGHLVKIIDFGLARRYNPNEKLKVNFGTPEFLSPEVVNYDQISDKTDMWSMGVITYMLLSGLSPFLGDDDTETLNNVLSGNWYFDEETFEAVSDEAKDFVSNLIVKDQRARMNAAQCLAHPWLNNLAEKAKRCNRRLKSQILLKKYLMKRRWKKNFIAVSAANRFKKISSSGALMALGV
Procedure, shortened: as §1

IRAK1 = molecular target: T9, IRAK1 (Homo sapiens, UniProt P51617); conditions: read-out: % Retention on Solid Support
T9 construct: purchased DiscoveRx KINOMEscan
T9 sequence (P51617 whole entry): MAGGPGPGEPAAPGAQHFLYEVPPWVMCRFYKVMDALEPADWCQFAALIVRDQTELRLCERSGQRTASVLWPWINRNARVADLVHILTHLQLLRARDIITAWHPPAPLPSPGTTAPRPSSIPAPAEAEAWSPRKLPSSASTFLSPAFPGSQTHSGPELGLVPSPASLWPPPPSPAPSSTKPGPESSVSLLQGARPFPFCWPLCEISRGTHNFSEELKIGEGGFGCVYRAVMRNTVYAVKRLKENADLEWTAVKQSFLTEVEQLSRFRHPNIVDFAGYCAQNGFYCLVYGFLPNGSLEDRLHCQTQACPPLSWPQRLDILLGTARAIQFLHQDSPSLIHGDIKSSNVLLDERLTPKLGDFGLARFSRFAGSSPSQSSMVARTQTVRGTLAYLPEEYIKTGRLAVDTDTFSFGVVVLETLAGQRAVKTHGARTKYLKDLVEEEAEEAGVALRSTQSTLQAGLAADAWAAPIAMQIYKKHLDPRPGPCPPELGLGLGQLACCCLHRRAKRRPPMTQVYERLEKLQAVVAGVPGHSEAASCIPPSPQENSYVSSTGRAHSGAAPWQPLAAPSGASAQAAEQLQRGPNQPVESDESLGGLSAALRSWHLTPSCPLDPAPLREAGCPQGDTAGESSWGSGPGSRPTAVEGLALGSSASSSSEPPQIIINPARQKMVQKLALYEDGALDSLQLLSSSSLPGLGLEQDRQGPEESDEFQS
Procedure, shortened: as §1

TSSK1B = molecular target: T10, TSSK1B (Homo sapiens, UniProt Q9BXA7); conditions: read-out: % Retention on Solid Support
T10 construct: purchased DiscoveRx KINOMEscan
Procedure, shortened: as §1

CLK4 = molecular target: T11, CLK4 (Homo sapiens, UniProt Q9HAZ1); conditions: read-out: % Retention on Solid Support
T11 construct: purchased DiscoveRx KINOMEscan
Procedure, shortened: as §1

JNK2 = molecular target: T12, JNK2 (Homo sapiens, UniProt P45984)
T12 construct: purchased DiscoveRx KINOMEscan
Procedure, shortened: as §1

CDK4-cyclinD1 = molecular target: T13, CDK4-cyclinD1 (Homo sapiens, UniProt P11802); conditions: 1 µM i-CDK9; read-out: % Retention on Solid Support
T13 construct: purchased DiscoveRx KINOMEscan
Procedure, shortened: as §1

PIK3CA(Q546K) = molecular target: T14, PIK3CA(Q546K) (Homo sapiens, UniProt P42336, Q546K); conditions: read-out: % Retention on Solid Support
T14 construct: purchased DiscoveRx KINOMEscan
Procedure, shortened: as §1

MAPKAPK5 = molecular target: T15, MAPKAPK5 (Homo sapiens, UniProt Q8IW41); conditions: read-out: % Retention on Solid Support
T15 construct: purchased DiscoveRx KINOMEscan
T15 sequence (Q8IW41 1-473): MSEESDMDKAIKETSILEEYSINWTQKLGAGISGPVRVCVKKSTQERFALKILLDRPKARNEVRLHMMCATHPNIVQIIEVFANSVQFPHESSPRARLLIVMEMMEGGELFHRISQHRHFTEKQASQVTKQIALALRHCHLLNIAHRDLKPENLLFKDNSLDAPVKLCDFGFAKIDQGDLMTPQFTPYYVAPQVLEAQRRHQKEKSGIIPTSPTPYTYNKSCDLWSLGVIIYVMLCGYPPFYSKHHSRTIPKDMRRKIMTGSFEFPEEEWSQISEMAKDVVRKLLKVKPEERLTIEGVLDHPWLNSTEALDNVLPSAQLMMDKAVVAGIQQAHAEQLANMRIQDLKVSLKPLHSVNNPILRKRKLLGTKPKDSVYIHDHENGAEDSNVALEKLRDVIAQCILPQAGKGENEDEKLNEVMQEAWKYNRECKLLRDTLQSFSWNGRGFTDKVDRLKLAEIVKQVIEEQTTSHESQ
Procedure, shortened: as §1

FGR = molecular target: T16, FGR (Homo sapiens, UniProt P09769); conditions: read-out: % Retention on Solid Support
T16 construct: purchased DiscoveRx KINOMEscan
Procedure, shortened: as §1

TEC = molecular target: T17, TEC (Homo sapiens, UniProt P42680); conditions: read-out: % Retention on Solid Support
T17 construct: purchased DiscoveRx KINOMEscan
Procedure, shortened: as §1

EPHA8 = molecular target: T18, EPHA8 (Homo sapiens, UniProt P29322); conditions: read-out: % Retention on Solid Support
T18 construct: purchased DiscoveRx KINOMEscan
Procedure, shortened: as §1

Structure (SMILES): N[C@H]1CC[C@H](Nc2cc(-c3cccc(NCc4cccc(F)c4)n3)c(Cl)cn2)CC1 [i-CDK9, N2′-(trans-4-aminocyclohexyl)-5′-chloro-N6-(3-fluorobenzyl)-2,4′-bipyridine-2′,6-diamine]
- % Retention on Solid Support (IRAK4): 93%
- remaining binding at 1 µM (MAP4K2; 1 µM i-CDK9): 64%
- remaining binding at 10 µM (MAP4K2; 10 µM i-CDK9): 10%
- remaining binding at 1 µM (PIP5K2C): 100%
- remaining binding at 1 µM (ERBB4; 1 µM i-CDK9): 100%
- remaining binding at 10 µM (ERBB4; 10 µM i-CDK9): 100%
- % Retention on Solid Support (FLT3(ITD); 1 µM i-CDK9): 100%
- % Retention on Solid Support (FLT3(ITD); 10 µM i-CDK9): 72%
- remaining binding at 1 µM (SgK110; 1 µM i-CDK9): 72%
- remaining binding at 10 µM (SgK110; 10 µM i-CDK9): 100%
- remaining binding at 1 µM (ABL1-nonphosphorylated; 1 µM i-CDK9): 81%
- remaining binding at 10 µM (ABL1-nonphosphorylated; 10 µM i-CDK9): 100%
- remaining binding at 1 µM [1]: 100%
- remaining binding at 1 µM (PDGFRB; 1 µM i-CDK9): 74%
- remaining binding at 10 µM (PDGFRB; 10 µM i-CDK9): 100%
- remaining binding at 1 µM (MYLK2; 1 µM i-CDK9): 100%
- remaining binding at 10 µM (MYLK2; 10 µM i-CDK9): 88%
- remaining binding at 1 µM (IRAK1; 1 µM i-CDK9): 100%
- remaining binding at 10 µM (IRAK1; 10 µM i-CDK9): 73%
- remaining binding at 1 µM (TSSK1B; 1 µM i-CDK9): 99%
- remaining binding at 10 µM (TSSK1B; 10 µM i-CDK9): 68%
- remaining binding at 1 µM (CLK4; 1 µM i-CDK9): 18%
- remaining binding at 10 µM (CLK4; 10 µM i-CDK9): 4.2%
- % Retention on Solid Support (JNK2; 1 µM i-CDK9): 98%
- % Retention on Solid Support (JNK2; 10 µM i-CDK9): 78%
- remaining binding at 1 µM (CDK4-cyclinD1): 100%
- remaining binding at 1 µM (PIK3CA(Q546K); 1 µM i-CDK9): 73%
- remaining binding at 10 µM (PIK3CA(Q546K); 10 µM i-CDK9): 100%
- remaining binding at 1 µM (MAPKAPK5; 1 µM i-CDK9): 100%
- remaining binding at 10 µM (MAPKAPK5; 10 µM i-CDK9): 94%
- remaining binding at 1 µM (FGR; 1 µM i-CDK9): 100%
- remaining binding at 10 µM (FGR; 10 µM i-CDK9): 98%
- remaining binding at 1 µM (TEC; 1 µM i-CDK9): 99%
- remaining binding at 10 µM (TEC; 10 µM i-CDK9): 100%
- remaining binding at 1 µM (EPHA8; 1 µM i-CDK9): 100%
- remaining binding at 10 µM (EPHA8; 10 µM i-CDK9): 100%
